Data reported in US12371454B2, “Cyclic peptide compound having Kras inhibitory action” (priority 2019, dated 2025).
Starred links: 1 amine or outer side, 2 acyl side, 3 side chain; linkers in the order of their positions; H or OH if unused. Positions of bridges follow the written chain, without caps; N, C: chain ends. Non-standard residues stand in square brackets, D forms with d. Residues, ends and D or L forms follow the SMILES beside them. *: point of attachment. hPhe(3-Cl-4-CF3) = N[C@@H](CCc1ccc(C(F)(F)F)c(Cl)c1)C(=O)O; hPhe(3-F,4-CF3) = N[C@@H](CCc1ccc(C(F)(F)F)c(F)c1)C(=O)O; 3Oxa8azabicyclo(3.2.1)octane = C1CC2COCC1N2*; NMeAbu(4,4,4-F3) = CN[C@@H](CC(F)(F)F)C(=O)O; NMePhe(4-Cl) = CN[C@@H](Cc1ccc(Cl)cc1)C(=O)O; NMePhe(4-Me) = CN[C@@H](Cc1ccc(C)cc1)C(=O)O; X33 = Cc1ccc(CC[C@H](N[*:1])C(=O)[*:2])cc1; NMedβ3hAla = C[C@H](CC(=O)[*:2])N(C)[*:1]; NMeAla(cPent) = CN[C@@H](CC1CCCC1)C(=O)O; NMePhe(2-F) = CN[C@@H](Cc1ccccc1F)C(=O)O; NMeGly(cPent) = CN[C@H](C(=O)O)C1CCCC1; Phe(3-I) = N[C@@H](Cc1cccc(I)c1)C(=O)O; dαMeGly(allyl) = C=CC[C@@](C)(N)C(=O)O; NMeAla(cPr) = CN[C@@H](CC1CC1)C(=O)O; NMe3Pal = CN[C@@H](Cc1cccnc1)C(=O)O; Gly(cPent) = N[C@H](C(=O)O)C1CCCC1; NMeCha = CN[C@@H](CC1CCCCC1)C(=O)O; Pro(4-oxo) = O=C1CN[C@H](C(=O)O)C1; X2 = C=CC[C@](C)(N[*:1])C(=O)[*:2]; NMeCba = CN[C@@H](CC1CCC1)C(=O)O; NMeChg = CN[C@H](C(=O)O)C1CCCCC1; NMeI = CC[C@H](C)[C@H](NC)C(=O)O; NMeT = CN[C@H](C(=O)O)[C@@H](C)O; NMeD = CN[C@@H](CC(=O)O)C(=O)O; NMeL = CN[C@@H](CC(C)C)C(=O)O; NEtAla = CCN[C@@H](C)C(=O)O; NMeV = CN[C@H](C(=O)O)C(C)C; NMeS = CN[C@@H](CO)C(=O)O; Morpholide = C1CN(*)CCO1; NMeA = CN[C@@H](C)C(=O)O; Nle = CCCC[C@H](N)C(=O)O; Piperidide = C1CCN(*)CC1; Ac5c = NC1(C(=O)O)CCCC1; Aze = O=C(O)[C@@H]1CCN1; Sar = CNCC(=O)O

How the values were obtained:
[1] = molecular target: T1, Kras and SOS1 (biotin-tagged human Kras loaded with GDP, His-tagged human SOS1) (Homo sapiens, UniProt P01116, G12D); assay: Protein-protein interaction inhibition between Kras and SOS1 (KrasGl2D-SOS PPI) using AlphaScreen; format: binding; details: AlphaScreen; biotin-tagged human Kras loaded with GDP, His-tagged human SOS1; read-out: KRAS G12D-SOS PPI IC50
T1 construct: made in house; host or cells: E. coli (stated for Kras only)
T1 sequence (P01116 1-188 isoform P01116-2 G12D): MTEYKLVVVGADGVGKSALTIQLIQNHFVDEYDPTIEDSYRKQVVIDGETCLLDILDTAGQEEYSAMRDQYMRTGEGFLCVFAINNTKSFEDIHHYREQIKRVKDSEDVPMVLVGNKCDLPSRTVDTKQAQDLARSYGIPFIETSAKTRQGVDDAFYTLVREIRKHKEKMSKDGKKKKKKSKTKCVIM
Method in brief: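 Donor beads (nickel) hold His-SOS1; acceptor beads (streptavidin) hold biotin-Kras bound to GDP. Signal measured at 520-620 nm following 680 nm excitation.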

[2] = system: Human pancreatic cancer cell line AsPC-1; assay: Measurement of AsPC-1 cell growth inhibition (AsPC-1 CGI); format: cell-based; details: 96 h
Method in brief: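 AsPC-1 cells in 15% FBS RPMI-1640 were exposed to test compound for 96 hours at 37° C, with CellTiter-Glo as endpoint.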

SMILES	IC50 [1] [nM]	IC50 [2] [nM]
CC[C@H](C)[C@@H]1NC(=O)[C@H](CC(F)(F)F)N(C)C(=O)C[C@@H](C(=O)N2CCOCC2)N(C)C(=O)[C@H](C2CCCCC2)N(C)C(=O)C2(CCCC2)NC(=O)[C@@H]2CCCN2C(=O)[C@H](CCc2ccc(C(F)(F)F)c(Cl)c2)NC(=O)CN(C)C(=O)[C@H](Cc2ccc(C)cc2)N(C)C(=O)CN(C)C(=O)CN(C)C1=O [Compound 1001] ([NMeAbu(4,4,4-F3)]I[Sar][Sar][NMePhe(4-Me)][Sar][hPhe(3-Cl-4-CF3)]P[Ac5c][NMeChg][NMeD]-Morpholide; lactam N-11)	0.44	20 to 50
CC[C@H](C)[C@@H]1NC(=O)[C@H](CC(C)C)N(C)C(=O)C[C@@H](C)N(C)C(=O)[C@H](CC2CC2)N(C)C(=O)C2(CCCC2)NC(=O)[C@@H]2CCCN2C(=O)[C@H](CCc2ccc(C(F)(F)F)c(Cl)c2)NC(=O)CN(C)C(=O)[C@H](CC2CCCCC2)N(C)C(=O)CN(C)C(=O)CN(C)C1=O [Compound 1019] (cyclo([Ac5c][NMeAla(cPr)][NMedβ3hAla][NMeL]I[Sar][Sar][NMeCha][Sar][hPhe(3-Cl-4-CF3)]P))	14	100 to 500
CC[C@H](C)[C@@H]1NC(=O)[C@H](CC(C)C)N(C)C(=O)C[C@@H](C(=O)N2CCCCC2)N(C)C(=O)[C@H](C2CCCCC2)N(C)C(=O)C2(CCCC2)NC(=O)[C@@H]2CC(=O)CN2C(=O)[C@H](CCc2ccc(C(F)(F)F)c(Cl)c2)NC(=O)CN(C)C(=O)[C@H](CC2CCCCC2)N(C)C(=O)CN(C)C(=O)CN(C)C1=O [Compound 1022] ([NMeL]I[Sar][Sar][NMeCha][Sar][hPhe(3-Cl-4-CF3)][Pro(4-oxo)][Ac5c][NMeChg][NMeD]-Piperidide; lactam N-11)	0.42	100 to 500
CCCC[C@@H]1NC(=O)[C@H](Cc2cccc(I)c2)NC(=O)CN(C)C(=O)[C@H](Cc2ccc(Cl)cc2)N(C)C(=O)CN(C)C(=O)CN(C)C(=O)[C@H]([C@@H](C)CC)NC(=O)[C@H](CC(C)C)N(C)C(=O)C[C@@H](C(=O)N2CCCCC2)N(C)C(=O)[C@H](CC(C)C)NC(=O)[C@H](Cc2ccccc2F)N(C)C1=O [Compound 1035] ([NMeL]I[Sar][Sar][NMePhe(4-Cl)][Sar][Phe(3-I)][Nle][NMePhe(2-F)]L[NMeD]-Piperidide; lactam N-11)	11	100 to 500
CC[C@H](C)[C@@H]1NC(=O)[C@H](COC)N(C)C(=O)C[C@@H](C(=O)N2CCCCC2)N(C)C(=O)[C@H](C2CCCCC2)N(C)C(=O)C2(CCCC2)NC(=O)[C@@H]2CCCN2C(=O)[C@H](CCc2ccc(C(F)(F)F)c(Cl)c2)NC(=O)CN(C)C(=O)[C@H](CC2CCCCC2)N(C)C(=O)CN(C)C(=O)CN(C)C1=O [Compound 1037] ([NMeS](Me)I[Sar][Sar][NMeCha][Sar][hPhe(3-Cl-4-CF3)]P[Ac5c][NMeChg][NMeD]-Piperidide; lactam N-11)	0.66	50 to 100
C=CC[C@@]1(C)NC(=O)[C@@H]2CCCN2C(=O)[C@H](CCc2ccc(C(F)(F)F)c(Cl)c2)NC(=O)CN(C)C(=O)[C@H](CC2CCCCC2)N(C)C(=O)CN(C)C(=O)CN(C)C(=O)[C@H]([C@@H](C)CC)NC(=O)[C@H](CC(C)C)N(C)C(=O)C[C@@H](C)N(C)C(=O)[C@H](C(C)C)N(C)C1=O [Compound 1038] (cyclo(I[Sar][Sar][NMeCha][Sar][hPhe(3-Cl-4-CF3)]P[dαMeGly(allyl)][NMeV][NMedβ3hAla][NMeL]))	18	100 to 500
CC[C@H](C)[C@@H]1NC(=O)[C@H](C)N(CC)C(=O)C[C@@H](C(=O)N2CCCCC2)N(C)C(=O)[C@H](C(C)C)N(C)C(=O)C2(CCCC2)NC(=O)[C@@H]2CCCN2C(=O)[C@H](CCc2ccc(C(F)(F)F)c(Cl)c2)NC(=O)CN(C)C(=O)[C@H](CC2CCCCC2)N(C)C(=O)CN(C)C(=O)CN(C)C1=O [Compound 1051] ([NEtAla]I[Sar][Sar][NMeCha][Sar][hPhe(3-Cl-4-CF3)]P[Ac5c][NMeV][NMeD]-Piperidide; lactam N-11)	2.9	100 to 500
CC[C@H](C)[C@@H]1NC(=O)[C@H](C)N(C)C(=O)C[C@@H](C(=O)N2CCCCC2)N(C)C(=O)[C@H](C2CCCCC2)N(C)C(=O)C2(CCCC2)NC(=O)[C@@H]2CCCN2C(=O)[C@H](CCc2ccc(C)cc2)NC(=O)CN(C)C(=O)[C@H](CC2CCCCC2)N(C)C(=O)CN(C)C(=O)CN(C)C1=O [Compound 1055] ([NMeA]I[Sar][Sar][NMeCha][Sar][X33]P[Ac5c][NMeChg][NMeD]-Piperidide; lactam N-11)	2.2	100 to 500
CC[C@H](C)[C@@H]1NC(=O)[C@H](CC(F)(F)F)N(C)C(=O)C[C@@H](C(=O)N2C3CCC2COC3)N(C)C(=O)[C@H](C2CCCCC2)N(C)C(=O)C2(CCCC2)NC(=O)[C@@H]2CCCN2C(=O)[C@H](CCc2ccc(C(F)(F)F)c(Cl)c2)NC(=O)CN(C)C(=O)[C@H](CC2CCCC2)N(C)C(=O)CN(C)C(=O)CN(C)C1=O [Compound 1057] ([NMeAbu(4,4,4-F3)]I[Sar][Sar][NMeAla(cPent)][Sar][hPhe(3-Cl-4-CF3)]P[Ac5c][NMeChg][NMeD]-{3Oxa8azabicyclo(3.2.1)octane}; lactam N-11)	1.2	100 to 500
CC(C)C[C@H]1C(=O)N[C@@H](C2CCCC2)C(=O)N(C)CC(=O)N(C)CC(=O)N(C)[C@@H](CC2CCCCC2)C(=O)N(C)CC(=O)N[C@@H](CCc2ccc(C(F)(F)F)c(Cl)c2)C(=O)N2CCC[C@H]2C(=O)NC2(CCCC2)C(=O)N(C)[C@@H](C(C)C)C(=O)N(C)[C@H](C(=O)N2CCCCC2)CC(=O)N1C [Compound 1064] ([NMeL][Gly(cPent)][Sar][Sar][NMeCha][Sar][hPhe(3-Cl-4-CF3)]P[Ac5c][NMeV][NMeD]-Piperidide; lactam N-11)	4.3	100 to 500
CC[C@H](C)[C@@H]1NC(=O)[C@H](CC(C)C)N(C)C(=O)C[C@@H](C(=O)N(C)C)N(C)C(=O)[C@H](C2CCCC2)N(C)C(=O)C2(CCCC2)NC(=O)[C@H](Cc2cccnc2)N(C)C(=O)[C@H](CCc2ccc(C(F)(F)F)c(Cl)c2)NC(=O)CN(C)C(=O)[C@H](CC2CCCCC2)N(C)C(=O)[C@@H]2CCN2C(=O)[C@H](C)N(C)C1=O [Compound 1071] ([NMeL]I[NMeA][Aze][NMeCha][Sar][hPhe(3-Cl-4-CF3)][NMe3Pal][Ac5c][NMeGly(cPent)][NMeD]-NMe2; lactam N-11)	1.3	100 to 500
CC[C@H](C)[C@@H]1NC(=O)[C@H](CC(C)C)N(C)C(=O)C[C@@H](C(=O)N2CCCCC2)N(C)C(=O)[C@H](C2CCCCC2)N(C)C(=O)C2(CCCC2)NC(=O)[C@@H]2CCCN2C(=O)[C@H](CCc2ccc(C(F)(F)F)c(Cl)c2)NC(=O)CN(C)C(=O)[C@H]([C@@H](C)OC)N(C)C(=O)CN(C)C(=O)CN(C)C1=O [Compound 1072] ([NMeL]I[Sar][Sar][NMeT](Me)[Sar][hPhe(3-Cl-4-CF3)]P[Ac5c][NMeChg][NMeD]-Piperidide; lactam N-11)	1.2	100 to 500
CC[C@H](C)[C@@H]1NC(=O)[C@H](CC(C)C)N(C)C(=O)C[C@@H](C(=O)N2CCCCC2)N(C)C(=O)[C@H](C2CCCC2)N(C)C(=O)C2(CCCC2)NC(=O)[C@@H]2CCCN2C(=O)[C@H](CCc2ccc(C(F)(F)F)c(Cl)c2)NC(=O)CN(C)C(=O)[C@H](CC2CCCCC2)N(C)C(=O)CN(C)C(=O)CN(C)C1=O [Compound 1073] ([NMeL]I[Sar][Sar][NMeCha][Sar][hPhe(3-Cl-4-CF3)]P[Ac5c][NMeGly(cPent)][NMeD]-Piperidide; lactam N-11)	2.1	20 to 50
CC[C@H](C)[C@@H]1NC(=O)[C@H](CC(C)C)N(C)C(=O)C[C@@H](C(=O)N2CCOCC2)N(C)C(=O)[C@H]([C@@H](C)CC)N(C)C(=O)C2(CCCC2)NC(=O)[C@@H]2CCCN2C(=O)[C@H](CCc2ccc(C(F)(F)F)c(F)c2)NC(=O)CN(C)C(=O)[C@H](C2CCCC2)N(C)C(=O)[C@@H]2CCN2C(=O)[C@H](C)N(C)C1=O [Compound 1098] ([NMeL]I[NMeA][Aze][NMeGly(cPent)][Sar][hPhe(3-F,4-CF3)]P[Ac5c][NMeI][NMeD]-Morpholide; lactam N-11)	5.6	20 to 50
C=CC[C@]1(C)NC(=O)[C@@H]2CCCN2C(=O)[C@H](CCc2ccc(C(F)(F)F)c(Cl)c2)NC(=O)CN(C)C(=O)[C@H](CC2CCCCC2)N(C)C(=O)CN(C)C(=O)CN(C)C(=O)[C@H]([C@@H](C)CC)NC(=O)[C@H](CC(C)C)N(C)C(=O)C[C@@H](C(=O)N2CCCCC2)N(C)C(=O)[C@H](C(C)C)N(C)C1=O [Compound 1109] ([NMeL]I[Sar][Sar][NMeCha][Sar][hPhe(3-Cl-4-CF3)]P[X2][NMeV][NMeD]-Piperidide; lactam N-11)	23	100 to 500
CC[C@H](C)[C@@H]1NC(=O)[C@H](CC2CCC2)N(C)C(=O)C[C@@H](C(=O)N2CCCCC2)N(C)C(=O)[C@H](C(C)C)N(C)C(=O)C2(CCCC2)NC(=O)[C@@H]2CCCN2C(=O)[C@H](CCc2ccc(C(F)(F)F)c(Cl)c2)NC(=O)CN(C)C(=O)[C@H](CC2CCCCC2)N(C)C(=O)[C@@H]2CCN2C(=O)[C@H](C)N(C)C1=O [Compound 1114] ([NMeCba]I[NMeA][Aze][NMeCha][Sar][hPhe(3-Cl-4-CF3)]P[Ac5c][NMeV][NMeD]-Piperidide; lactam N-11)	11	100 to 500
